Assay: xn = mol fraction of the nth substance listed

CCC(=O)O + Nc1ccccc1
Settings	viscosity [mPa·s]
298.15 K, 101 kPa, x1 = 0.0996	4.218
298.15 K, 101 kPa, x1 = 0.2015	4.652
298.15 K, 101 kPa, x1 = 0.2966	5.177
298.15 K, 101 kPa, x1 = 0.388	5.87
298.15 K, 101 kPa, x1 = 0.4955	6.898
298.15 K, 101 kPa, x1 = 0.5962	7.775
298.15 K, 101 kPa, x1 = 0.716	7.294
298.15 K, 101 kPa, x1 = 0.7994	5.282
298.15 K, 101 kPa, x1 = 0.895	2.477
308.15 K, 101.33 kPa, x1 = 0.1243	2.912
308.15 K, 101.33 kPa, x1 = 0.2382	3.203
308.15 K, 101.33 kPa, x1 = 0.3507	3.59
308.15 K, 101.33 kPa, x1 = 0.4545	3.971
308.15 K, 101.33 kPa, x1 = 0.5568	4.468
308.15 K, 101.33 kPa, x1 = 0.6544	4.762
308.15 K, 101.33 kPa, x1 = 0.7452	4.169
308.15 K, 101.33 kPa, x1 = 0.7903	3.402
308.15 K, 101.33 kPa, x1 = 0.8345	2.792
308.15 K, 101.33 kPa, x1 = 0.8774	2.008
308.15 K, 101.33 kPa, x1 = 0.918	1.561
308.15 K, 101.33 kPa, x1 = 0.9595	1.168

Nc1cccc(Cl)c1 + CC(C)(C)O
viscosity [mPa·s], 101 kPa
Settings	x1 = 0.0912	x1 = 0.1842	x1 = 0.279	x1 = 0.3758	x1 = 0.4745	x1 = 0.5753	x1 = 0.6782	x1 = 0.7832	x1 = 0.8904
303.15 K	3.097	3.238	3.382	3.525	3.659	3.784	3.901	4.013	4.127
308.15 K	2.819	2.953	3.085	3.213	3.333	3.445	3.546	3.644	3.742
313.15 K	2.283	2.423	2.562	2.697	2.828	2.954	3.075	3.192	3.308
318.15 K	1.875	2.015	2.153	2.289	2.419	2.544	2.665	2.781	2.899

ClCCCCCl + CCCCO
viscosity [mPa·s], 101 kPa
Settings	x1 = 0.0988	x1 = 0.1965	x1 = 0.2919	x1 = 0.3955	x1 = 0.4961	x1 = 0.5978	x1 = 0.6964	x1 = 0.7945	x1 = 0.8982
298.15 K	2.129	1.827	1.61	1.455	1.338	1.265	1.221	1.204	1.213
313.15 K	1.485	1.3	1.17	1.077	1.012	0.9721	0.9502	0.9443	0.9674

ClCCCCCl + CC(C)(C)O
viscosity [mPa·s], 101 kPa
Settings	x1 = 0.1005	x1 = 0.2009	x1 = 0.2964	x1 = 0.435	x1 = 0.5026	x1 = 0.602	x1 = 0.7061	x1 = 0.8038	x1 = 0.9014
298.15 K	2.618	1.826	1.482	1.315	1.257	1.202	1.18	1.182	1.208
313.15 K	1.495	1.18	1.035	0.9459	0.9313	0.9139	0.916	0.9291	0.9613

CCC(=O)O + c1ccncc1
298.15 K, 101 kPa
Settings	viscosity [mPa·s]
x1 = 0.0999	1
x1 = 0.1959	1.135
x1 = 0.2826	1.311
x1 = 0.3927	1.587
x1 = 0.5016	1.943
x1 = 0.6401	2.388
x1 = 0.7118	2.48
x1 = 0.7972	2.353
x1 = 0.8994	1.755
